Assay results as given in patent US8288398B2, “Antiproliferative pyrimidyl, fused pyrimidyl and pyrimidyl hydrazones” (Merck Serono SA, priority 2005, dated 2012).

Legend:
[1] = test system: Colon cancer (C26, murine) cells; test: Tumor cell proliferation assay (ATP-lite), C26; assay type: cell-based; settings: Mus musculus, 96 h, inhibition of tumor cell growth by 50%, 4 days incubation, ATP-lite readout
Method: (§1) Assay 1: Tumor Cell Proliferation Assay:
(§2) Colon cancer (C26, murine), pancreatic cancer (MiaPaCa-2, human) cells were plated in 96-well white plates (Cat. No. 3917, Corning, Inc.) at 2.5×10^3 cells/well and cultured overnight at 37° C. in 5% CO2 in DMEM containing 10% FCS. Inhibitors were serially diluted in 100% DMSO and subsequently added to cells to reach a final concentration of 0.25% DMSO. Cell plates were incubated for an additional 4 days at 37° C. and 5% CO2 and cell proliferation was quantitated using the ATP-lite cell proliferation kit (Cat. No. 6016943, Perkin Elmer).
(§3) The ATPlite kit quantifies the ATP released from lysed cells by the generation of light caused by the reaction of the released ATP with the Luciferase and D-Luciferin contained in the kit. After the 4th day of incubation, the media is removed from the cell plates and replaced with 100 μL of PBS followed by 50 μL of the lysis solution. The plates are then shaken for 5 minutes on an orbital shaker followed by the addition of 50 μL of substrate solution. The plates are shaken for an additional 5 minutes followed by dark adaptation for 10 minutes and finally read on a Victor^3 V plate reader (1 second/well, Cat. No. 1420-041, Perkin Elmer).
(§4) Columns 2-3 show the concentration of compounds required to inhibit the growth of tumor cells by 50% (IC50 in μM).

[2] = test system: pancreatic cancer (MiaPaCa-2, human) cells; test: Tumor cell proliferation assay (ATP-lite), MiaPaCa-2; assay type: cell-based; settings: MIA PaCa-2, 96 h; inhibition of tumor cell growth by 50%; MiaPaCa-2 human pancreatic cancer cells; 4 days incubation; ATP-lite readout
Method: as §1, §2, §3, §4

Row | IC50 [1] | IC50 [2] | Structure (SMILES)
1 | < 1000 nM | < 1000 nM | CCc1nc(NN=C(C)c2ccc(N(C)C)cc2)cc(-c2ccccc2OC)n1 [Compound 16, [4-(1{[2-Ethyl-6-(2-methoxy-phenyl)-pyrimidin-4-yl]-hydrazono}-ethyl)-phenyl]-dimethylamine]
2 | 1000 to 15000 nM | 1000 to 15000 nM | CC(=NNc1nc(C)nc2ccccc12)c1ccc(C)cc1 [Compound 5, N-(2-Methyl-quinazolin-4-yl)-N-(1-p-tolyl-ethylidene)-hydrazine]
3 | < 1000 nM | < 1000 nM | COc1ccccc1-c1cc(NN=C(C)c2ccc(C)cc2)ncn1 [Compound 25, N-[6-(2-Methoxy-phenyl)-pyrimidin-4-yl]-N′-[1-p-tolyl-ethylidene]-hydrazine]
4 | 1000 to 15000 nM | < 1000 nM | CC(=NNc1cc(-c2ccccc2OC(C)C)nc(C)n1)c1ccc(N(C)C)cc1 [Compound 12, [4-(1-{[6-(2-Isopropoxy-phenyl)-2-methyl-pyrimidin-4-yl]-hydrazono}-ethyl)-phenyl]-dimethylamine]
5 | < 1000 nM | < 1000 nM | CC(=NN(C)c1cc(-c2ccccc2)nc(C)n1)c1ccc(C)cc1 [Compound 39, N-Methyl-N-(2-methyl-6-phenyl-pyrimidin-4-yl)-N′-[1-p-tolyl-ethylidene]-hydrazine]
6 | < 1000 nM | < 1000 nM | CNc1ccc(C(C)=NNc2cc(-c3ccccc3)nc(C)n2)cc1 [Compound 18, Methyl-(4-{1-[(2-methyl-6-phenyl-pyrimidin-4-yl)-hydrazono]-ethyl}-phenyl)-amine]
7 | 1000 to 15000 nM |  | CC(=NNc1cc(-c2cccnc2)nc(C)n1)c1ccc(C)cc1 [Compound 37, N-(2-Methyl-6-pyridin-3-yl-pyrimidin-4-yl)-N′-[1-p-tolyl-ethylidene]-hydrazine]
8 | < 1000 nM | < 1000 nM | CC(=NNc1cc(-c2ccccc2N)nc(C)n1)c1ccc(N(C)C)cc1 [Compound 14, [4-(1-{[6-(2-amino-phenyl)-2-methyl-pyrimidin-4-yl]-hydrazono}-ethyl)-phenyl]-dimethylamine]
9 | < 1000 nM | < 1000 nM | CC(=NNc1cc(-c2c(C)noc2C)nc(C)n1)c1ccc(C)cc1 [Compound 36, N-[6-(3,5-Dimethyl-isoxazol-4-yl)-2-methyl-pyrimidin-4-yl]-N′-[1-p-tolyl-ethylidene]-hydrazine]
10 | 1000 to 15000 nM | 1000 to 15000 nM | CC(=NNc1cc(-c2ccccc2)nc(C)n1)c1ccc(NC(N)=S)cc1 [Compound 19, 4-({1-[(2-Methyl-6-phenyl-pyrimidin-4-yl)-hydrazono]-ethyl}-phenyl)-thiourea]
11 | 1000 to 15000 nM |  | CC(=NNc1cc(-c2ccccc2)nc(C)n1)c1ccc(Br)cc1 [Compound 44, N-[1-(4-Bromo-phenyl)-ethylidene]-N′-(2-methyl-6-phenyl-pyrimidin-4-yl)-hydrazine]
12 | 1000 to 15000 nM | 1000 to 15000 nM | CC(=NNc1nc(C(F)(F)F)nc2ccccc12)c1ccc(C)cc1 [Compound 3, N-(1-p-Tolyl-ethylidene)-N′-(2-trifluoromethyl-quinazolin-4-yl)-hydrazine]
13 | 1000 to 15000 nM | 1000 to 15000 nM | CC(=NNc1cc(-c2ccccc2)nc(C)n1)c1ccc(N)cc1 [Compound 42, 4-{1-[(2-Methyl-6-phenyl-pyrimidin-4-yl)-hydrazono]-ethyl}-phenylamine]
14 | < 1000 nM | < 1000 nM | CC(=NNc1cc(-c2ccccc2F)nc(C)n1)c1ccc(C)cc1 [Compound 27, N-[6-(2-Fluoro-phenyl)-2-methyl-pyrimidin-4-yl]-N′-[1-p-tolyl-ethylidene]-hydrazine]
15 | < 1000 nM | < 1000 nM | CC(=NNc1cc(-c2ccccc2CO)nc(C)n1)c1ccc(C)cc1 [Compound 35, [2-(2-Methyl-6-{N′-[1-p-tolyl-ethylidene]-hydrazino}-pyrimidin-4-yl)-phenyl]-methanol]
16 |  | 1000 to 15000 nM | COc1ccc(-c2cc(NN=C(C)c3ccc(C)cc3)nc(C)n2)cc1 [Compound 30, N-[6-(4-Methoxy-phenyl)-2-methylpyrimidin-4-yl]-N′-[1-p-tolyl-ethylidene]-hydrazine]
17 | 1000 to 15000 nM | 1000 to 15000 nM | CCC(=NNc1cc(-c2ccccc2)nc(C)n1)c1ccc(C)cc1 [Compound 22, N-(2-Methyl-6-phenyl-pyrimidin-4-yl)-N′-[1-p-tolyl-propylidene]-hydrazine]
18 | < 1000 nM | < 1000 nM | CC(=NN(C)c1nc(C(F)(F)F)nc2ccccc12)c1cccc(C)c1 [Compound 1]
19 | < 1000 nM | < 1000 nM | CC(=NNc1cc(-c2ccccc2C#N)nc(C)n1)c1ccc(C)cc1 [Compound 31, 2-(2-Methyl-6-{N′-[1-p-tolyl-ethylidene]-hydrazino}-pyrimidin-4-yl)-benzonitrile]
20 | < 1000 nM | < 1000 nM | CC(=NNc1cc(-c2ccccc2N)nc(C)n1)c1ccc(C)cc1 [Compound 38, 2-(2-Methyl-6-{N′-[1-p-tolyl-ethylidene]-hydrazino}-pyrimidin-4-yl)-phenylamine]
21 | < 1000 nM | < 1000 nM | COc1cccc(OC)c1-c1cc(NN=C(C)c2ccc(C)cc2)nc(C)n1 [Compound 40, N-[6-(2,6-Dimethoxy-phenyl)-2-methyl-pyrimidin-4-yl]-N′-[1-p-tolyl-ethylidene]-hydrazine]
22 | < 1000 nM | < 1000 nM | CC(=NNc1cc(-c2ccccc2C)nc(C)n1)c1ccc(C)cc1 [Compound 32, N-[6-(2-methyl-phenyl)-2-methyl-pyrimidin-4-yl]-N′-[1-p-tolyl-ethylidene]-hydrazine]
23 | 1000 to 15000 nM |  | CC(=NNc1cc(-c2ccccc2)nc(C)n1)c1ccc(I)cc1 [Compound 45, N-[1-(4-Iodo-phenyl)-ethylidene]-N′-(2-methyl-6-phenyl-pyrimidin-4-yl)-hydrazine]
24 | 1000 to 15000 nM |  | CC(=NNc1cc(-c2ccccc2)nc(C)n1)c1cccc(N)c1 [Compound 46, 3-{1-[(2-Methyl-6-phenyl-pyrimidin-4-yl)-hydrazono]-ethyl}-phenylamine]
25 |  | 1000 to 15000 nM | COc1cccc(-c2cc(NN=C(C)c3ccc(C)cc3)nc(C)n2)c1 [Compound 28, N-[6-(3-Methoxy-phenyl)-2-methylpyrimidin-4-yl]-N′-[1-p-tolyl-ethylidene]-hydrazine]
26 | 1000 to 15000 nM |  | CC(=NNc1cc(-c2ccccc2)nc(C)n1)c1ccc(Cl)cc1 [Compound 23, N-[1-(4-Chloro-phenyl)ethylidene]-N′-(2-methyl-6-phenyl-pyrimidin-4-yl)-hydrazine]
27 | < 1000 nM |  | CCc1ccc(C(C)=NNc2cc(-c3ccccc3)nc(C)n2)cc1 [Compound 43, N-[1-(4-Ethyl-phenyl)-ethylidene]-N′-(2-methyl-6-phenyl-pyrimidin-4-yl)-hydrazine]
28 | 1000 to 15000 nM |  | CC(=NNc1cc(-c2ccccc2)nc(C)n1)c1ccc(O)cc1 [Compound 48, 4-{1-[(2-Methyl-6-phenyl-pyrimidin-4-yl)-hydrazono]-ethyl}-phenol]
29 | < 1000 nM |  | COc1ccc(C(C)=NNc2cc(-c3ccccc3)nc(C)n2)cc1 [Compound 24, N-[1-(4-Methoxy-phenyl)-ethylidene]-N′-(2-methyl-6-phenyl-pyrimidin-4-yl)-hydrazine]
30 | 1000 to 15000 nM |  | CC(=NNc1cc(-c2ccccc2)nc(C)n1)c1ccc(Cl)c(Cl)c1 [Compound 47, N-[1-(3,4-Dichloro-phenyl)-ethylidene]-N′-(2-methyl-6-phenyl-pyrimidin-4-yl)-hydrazine]
